“Also recorded” adds a separate entry of the source. Like-named read-outs stand apart in the source and are kept apart here.
What was measured:
[1] = Phase 1 FIH study: plasma pharmacokinetics in healthy participants; format: in vivo, human; conditions: for Tmax / Cmax / AUC(0-t) / AUC / Vd/F: human, plasma; for Vd/F: read-out: Vz/F (mean)
Protocol: Part 1 was a double-blind, SRD study in healthy adults, utilizing an alternate panel design (cohorts 1, 2) and sequential panel design (cohorts 3-5). Cohorts 1 and 2 were part of a two-period, alternating-panel, double-blind study of Compound (I) administered as an oral suspension (5 mg, 10 mg, 20 mg, or 40 mg) or matched placebo, with a washout period of at least 7 days between treatment periods. Cohorts 3-5 were part of a sequential-panel, double-blind study to evaluate the SRDs of Compound (I) (80, 120, or 160 mg, respectively) or matched placebo. Although planned, all subsequent doses after the dose of 80 mg were determined based on emerging safety, tolerability, and PK data from the preceding cohorts.
In Part 2, participants received either placebo on all dosing days or a loading dose of Compound (I) on Day 1 and a maintenance dose of half the initial dose on Days 8, 15 and 22, administered as an oral suspension. Baseline measurements were obtained on Day −2, and study-specific measurements were obtained following oral dose administrations on Days 1, 8, 15, and 22.
Part 3 was a randomized, open-label, single-dose, parallel design study to evaluate the bioavailability of a Compound (I) tablet formulation relative to a Compound (I) oral suspension formulation and the effect of food on the PK in healthy participants. The immediate release tablet contained mannitol, microcrystalline cellulose, and other commonly used excipients. Participants were randomized 1:1 to receive a single 40 mg dose of Compound (I) as a tablet after either 10 h overnight fast, or 30 min after beginning ingestion of a high-fat, high-calorie breakfast.
Participants were required to remain in the study unit for an additional 48 h post-dose for safety and PK assessments with follow-up visits on Day 4-5 and on Day 17-21. Blood samples were collected over 96 h post-dose to measure the plasma concentrations of Compound (I).
Plasma and urine concentrations of Compound (I) and urine concentrations of cortisol and 6β-hydroxycortisol were measured by high performance liquid chromatography with tandem mass spectrometry. One 4 mL blood sample was collected per scheduled assessment. For participants receiving placebo, blood samples were analyzed only at pre-dose and around the time Cmax occurred (as emerging from the measurements of the first dose group) to ensure that no additional participants could have been on active treatment. Serial urine samples were collected for Part 1 cohorts 1-5 and Part 2 cohorts 1-4. Urine samples for participants receiving placebo were not analyzed. Urine samples were collected for the determination of cortisol and 6β-hydroxycortisol for Part 2 cohorts 1-4 and for all patients in Part 4. Samples for participants randomized to placebo were analyzed for these parameters.
Pharmacokinetic parameters were determined from the concentration-time profiles for all evaluable participants. Actual sampling times were used in all computations. pharmacokinetic parameters were calculated using non-compartmental analysis using Phoenix WinNonLin v8.0 or SAS v 9.4.

[2] = Separate single dose oral study: half-life in rats; conditions: rat, in vivo; single dose oral administration of 5-15 mg/kg
From the text: (§1) The mean t1/2z for Compound (I) reflects the prolonged half-life of Compound (I) in humans. […] In that study, the mean human half-life of Compound (I) (approximately 11 days) was substantially higher than the 2-4 hr mean half-life observed in rats and dogs.

[3] = Separate single dose oral study: half-life in dogs; conditions: dog, in vivo; single dose oral administration of 5-15 mg/kg
From the text: as §1

[4] = Part 3, single oral 40 mg tablet
[5] = healthy, oral, 40/20 mg, Day 22, N 6
[6] = healthy, oral, 80/40 mg, Day 22, N 6
[7] = healthy, oral, 120/60 mg, Day 22, N 6
[8] = healthy, oral, 160/80 mg, Day 22, N 6
[9] = po, healthy, oral, 40/20 mg, Day 22, N 6
[10] = po, healthy, oral, 80/40 mg, Day 22, N 6
[11] = po, healthy, oral, 120/60 mg, Day 22, N 6
[12] = po, healthy, oral, 160/80 mg, Day 22, N 6

C[C@H](NC(=O)Cn1nnc2ccccc2c1=O)c1ccc(OC(F)(F)F)cc1 [Compound (I), (S)-2-(4-oxobenzo[d][1,2,3]triazin-3(4H)-yl)-N-(1-(4-(trifluoromethoxy)phenyl)ethyl)acetamide]
mean t1/2z ([1]; Part 1 SRD, 20-160 mg dose range): 210 to 296 h | mean t1/2z at steady state ([1]; Part 2 MRD): 170 to 302 h | dose proportionality of systemic exposure at steady state ([1]; Part 2 MRD, Day 22): increased approximately dose proportionally | ratio for AUC96, tablet under fasted and fed conditions [1, 4]: ~0.942 | ratio for Cmax, tablet under fasted and fed conditions [1, 4]: approximately 0.841 | food effect on systemic exposure ([1]; Part 3, tablet, fasted vs high-fat, high-calorie meal): no meaningful food effect on systemic exposure; also recorded: minimal food effect | steady-state mean t1/2z ([1]; healthy participants (comparison for Part 4)): 271 h | CL/F (mean) [1, 5]: 334.6 mL/h | Cav,ss (mean) [1, 5]: 393.8 ng/mL | Ctrough (mean) [1, 5]: 274.2 ng/mL | t1/2z (mean) [1, 5]: 299.5 h | CL/F (mean) [1, 6]: 281.9 mL/h | Cav,ss (mean) [1, 6]: 889.3 ng/mL | Ctrough (mean) [1, 6]: 621.3 ng/mL | t1/2z (mean) [1, 6]: 301.7 h | CL/F (mean) [1, 7]: 299.1 mL/h | Cav,ss (mean) [1, 7]: 1206.6 ng/mL | Ctrough (mean) [1, 7]: 862.5 ng/mL | t1/2z (mean) [1, 7]: 169.7 h | CL/F (mean) [1, 8]: 284.6 mL/h | Cav,ss (mean) [1, 8]: 1751.1 ng/mL | Ctrough (mean) [1, 8]: 1209.0 ng/mL | t1/2z (mean) [1, 8]: 270.8 h | saturation of plasma PK ([1]; highest dose level tested): Saturation of plasma PK was observed at 160 mg | Tmax ([1]; oral, 40 mg, Part 3, tablet formulation, fasted and fed states, read-out: median tmax): 2 h | Tmax ([1]; oral, 120 mg, Part 1 SRD, 120 mg (secondary peak in some participants), read-out: median tmax): 13 h | Tmax ([1]; oral, 160 mg, Part 1 SRD, 160 mg (secondary peak in some participants), read-out: median tmax): 13.5 h | Tmax ([1]; oral, Part 1 SRD, dose range 5-80 mg, read-out: median tmax): 0.99 to 3 h | Cmax ([1]; oral, Part 2 MRD, 40/20 mg, up to 168 h post-dose, read-out: Mean Cmax (SD)): 550 ng/mL | Cmax ([1]; oral, Part 2 MRD, 80/40 mg, up to 168 h post-dose, read-out: Mean Cmax (SD)): 880 ng/mL | Cmax ([1]; oral, Part 2 MRD, 120/60 mg, up to 168 h post-dose, read-out: Mean Cmax (SD)): 1260 ng/mL | Cmax ([1]; oral, Part 2 MRD, 160/80 mg, up to 168 h post-dose, read-out: Mean Cmax (SD)): 1760 ng/mL | Tmax ([1]; oral, Part 2 MRD, read-out: median tmax): 1.75 to 3 h | Tmax ([1]; oral, healthy participants (comparison for Part 4), read-out: median tmax): 3 h | Cmax ([1]; po, 5 mg, Part 1 SRD, Cohort 1, 5 mg oral suspension, fasted, up to 96 h post-dose, read-out: Mean Cmax (SD)): 140 ng/mL | Cmax ([1]; po, 10 mg, Part 1 SRD, Cohort 2, 10 mg oral suspension, fasted, up to 96 h post-dose, read-out: Mean Cmax (SD)): 193 ng/mL | Cmax ([1]; po, 80 mg, Part 1 SRD, Cohort 3, 80 mg oral suspension, fasted, up to 168 h post-dose, read-out: Mean Cmax (SD)): 910 ng/mL | Cmax ([1]; po, 120 mg, Part 1 SRD, Cohort 4, 120 mg oral suspension, fasted, up to 168 h post-dose, read-out: Mean Cmax (SD)): 1200 ng/mL | Cmax ([1]; po, 160 mg, Part 1 SRD, Cohort 5, 160 mg oral suspension, fasted, up to 168 h post-dose, read-out: Mean Cmax (SD)): 1120 ng/mL | AUC(0-t) [1, 9]: 191 µg·h/mL | AUC ([1]; po, healthy, oral, 40/20 mg, Day 22, N 6, read-out: AUC24 (mean)): 12 µg·h/mL | AUC ([1]; po, healthy, oral, 40/20 mg, Day 22, N 6, read-out: AUC96 (mean)): 42.2 µg·h/mL | AUC ([1]; po, healthy, oral, 40/20 mg, Day 22, N 6, read-out: AUCτ (mean)): 66.2 µg·h/mL | Cmax ([1]; po, healthy, oral, 40/20 mg, Day 22, N 6, read-out: Cmax (mean)): 698 ng/mL | Vd/F [1, 9]: 112 L | Tmax ([1]; po, healthy, oral, 40/20 mg, Day 22, N 6, read-out: tmax (median)): 1.75 h | AUC(0-t) [1, 10]: 421 µg·h/mL | AUC ([1]; po, healthy, oral, 80/40 mg, Day 22, N 6, read-out: AUC24 (mean)): 24.4 µg·h/mL | AUC ([1]; po, healthy, oral, 80/40 mg, Day 22, N 6, read-out: AUC96 (mean)): 92.7 µg·h/mL | AUC ([1]; po, healthy, oral, 80/40 mg, Day 22, N 6, read-out: AUCτ (mean)): 149 µg·h/mL | Cmax ([1]; po, healthy, oral, 80/40 mg, Day 22, N 6, read-out: Cmax (mean)): 1250 ng/mL | Vd/F [1, 10]: 123 L | Tmax ([1]; po, healthy, oral, 80/40 mg, Day 22, N 6, read-out: tmax (median)): 2 h | AUC(0-t) [1, 11]: 407 µg·h/mL | AUC ([1]; po, healthy, oral, 120/60 mg, Day 22, N 6, read-out: AUC24 (mean)): 35.9 µg·h/mL | AUC ([1]; po, healthy, oral, 120/60 mg, Day 22, N 6, read-out: AUC96 (mean)): 134 µg·h/mL | AUC ([1]; po, healthy, oral, 120/60 mg, Day 22, N 6, read-out: AUCτ (mean)): 203 µg·h/mL | Cmax ([1]; po, healthy, oral, 120/60 mg, Day 22, N 6, read-out: Cmax (mean)): 1740 ng/mL | Vd/F [1, 11]: 73 L | Tmax ([1]; po, healthy, oral, 120/60 mg, Day 22, N 6, read-out: tmax (median)): 3 h | AUC(0-t) [1, 12]: 841 µg·h/mL | AUC ([1]; po, healthy, oral, 160/80 mg, Day 22, N 6, read-out: AUC24 (mean)): 47.4 µg·h/mL | AUC ([1]; po, healthy, oral, 160/80 mg, Day 22, N 6, read-out: AUC96 (mean)): 181 µg·h/mL | AUC ([1]; po, healthy, oral, 160/80 mg, Day 22, N 6, read-out: AUCτ (mean)): 294 µg·h/mL | Cmax ([1]; po, healthy, oral, 160/80 mg, Day 22, N 6, read-out: Cmax (mean)): 2410 ng/mL | Vd/F [1, 12]: 103 L | Tmax ([1]; po, healthy, oral, 160/80 mg, Day 22, N 6, read-out: tmax (median)): 3 h | Tmax ([1]; po, oral suspension (comparison for Part 3), read-out: median tmax): 1.82 h | Tmax ([1]; po, single and repeated oral administration, healthy and schizophrenia patients, read-out: tmax): 0.99 to 3 h | absorption ([1]; single and repeated oral administration, healthy volunteers and patients with stable schizophrenia): rapidly absorbed | dose proportionality of Cmax and AUC ([1]; single oral doses 5-160 mg, healthy): increased less than dose proportionally | half-life [2]: 2 to 4 h | half-life [3]: 2 to 4 h

From patent US20230310441A1, “TREATMENT FOR SCHIZOPHRENIA” (TAKEDA PHARMACEUTICAL COMPANY, priority 2020, published 2023)
